Ends that are not written are not given here. Peptide text beside a SMILES is read from it. * marks the point of attachment. Cbz = O=C(OCc1ccccc1)*; CH2F = FC*

The test system of assay [1] is mitochondria from FL5.12 cells. Nature of the assay: Cytochrome c release from FL5.12 mitochondria. Format: biochemical, murine. Here is the method:
(§1) Mitochondria were purified from liver and FL5.12cells as previously described (Letai et al., 2002). Mitochondria were purified from leukemia cells and 2B4 cells as previously described for FL5.12 cells. Mitochondria were incubated with treatments for 45 (mouse liver mitochondria) or 35 minutes (FL5.12, 2B4, and leukemic mitochondria). Release of cytochrome c was determined by a comparison of cytochrome c in the pellet and supernatant following treatment, quantitated by ELISA (R&D systems).
Mitochondria were isolated from wt FL5.12 cells and FL5.12-BCL-2 cells in the presence of IL-3, and from FL5.12-BCL-2 cells following 24 hours of IL-3 deprivation. […] Mitochondrial pellets were subjected to chemical crosslinking as previously described (Letai et al., 2002).

In a further assay the test system is SU-DHL8. Nature of the assay: BH3 profiling, cytochrome c release from lymphoma mitochondria. As to conditions: SU-DHL-8. The assay is classed as biochemical. The source says: (§2) BH3 profiling allows for the prediction of response of cancer cells to anti-cancer therapeutics. For the purposes of this application, therapeutics can be divided into those that target anti-apoptotic BCL-2 proteins, and conventional agents. As a model test system, four lymphoma cell lines SU-DHL4, SU-DHL6, SU-DHL8, and SU-DHL 10 were employed. To perform BH3 profiling, the ability of a panel of sensitizer peptides to induce mitochondrial outer membrane permeabilization (MOMP) in mitochondria isolated from the lymphoma cells were tested. […] MOMP was measured by quantifying cytochrome c release by ELISA.

Another assay concerns mouse liver mitochondria. Nature of the assay: Cytochrome c release from mouse liver mitochondria. Format: biochemical. To be noted: no tBID, also at 10-fold higher concentrations. Here is the method:
as §1, with “systems). When results of multiple experiments were averaged, results from solvent-only (DMSO) treatments values were subtracted from each, so that 0 release reflects that observed in solvent-only treatments.” for “systems).”
To test if selective binding corresponded to ability of individual BH3 domains to selectively antagonize antiapoptotic function, a purified mitochondrial system was constructed in which the critical apoptosis decision making molecular machinery was reconstituted. […] The multidomain proapoptotic function was provided by the BAK which resides in mouse liver Mitochondria; mouse liver mitochondria contain no detectable BAX protein (Letai et al., 2002). The dominant antiapoptotic function was provided by one of the five different recombinant antiapoptotic proteins used in the binding assays. BH3 peptides provided the sensitizer function.
Furthermore, when the panel of sensitizer BH3 peptides was tested in the presence of the antiapoptotic protein BCL-XL, there was still no cytochrome c release, formally ruling out the possibility that the BH3 peptides were somehow directly converting antiapoptotic proteins to a proapoptotic function (FIG. 2). To induce MOMP and cytochrome c release, there appears to be an absolute requirement for an activator function, here provided by the tBID protein.

For another assay, the system named is leukemic mitochondria. Kind of assay: Cytochrome c release from BCL-2 dependent leukemia mitochondria. The assay is classed as biochemical, mouse. Here is the method:
as §1, with “systems). When results of multiple experiments were averaged, results from solvent-only (DMSO) treatments values were subtracted from each, so that 0 release reflects that observed in solvent-only treatments.” for “systems).”
Leukemia prone mice were generated as previously described (Letai, 2004). Mouse experimental protocols conform to the relevant regulatory standards and were approved by the Dana-Farber Cancer Institute Animal Care and Use Committee.
Previous results have described a mouse acute lymphocytic leukemia model in which c-myc is constitutively expressed and human BCL-2 is repressibly expressed. In this model, when BCL-2 transgene expression is eliminated by administration of doxycycline, the leukemic cells undergo apoptosis, resulting in rapid resolution of the leukemia (Letai, 2004). This provides an ideal in vivo model of a BCL-2 dependent cancer. It was hypothesized that dependence on BCL-2 was due to a similar mechanism to that of the IL-3 deprived FL5.12-BCL-2 cells—that is, a death signal was being initiated and carried by an activator BH3 molecule, but BCL-2 was binding it and preventing its interaction with multidomain proapoptotic proteins.
Mitochondria were isolated from leukemia cells and exposed to sensitizer BH3 peptides. Subsequently, cytochrome c release was measured. As an internal control, mitochondria were isolated from liver from the leukemic mice in parallel (FIG. 8A).

A further assay deals with CLL mitochondria. Kind of assay: Cytochrome c release from CLL mitochondria. The assay is classed as biochemical, human. As to conditions: peptides or compounds 100 μM. Here is the method:
Alternatively, mitochondria were purified from freshly isolated CLL cells and cell lines by mechanical disruption followed by differential centrifugation, as previously described (Letai et al., 2002). Mitochondrial suspensions were made at 0.5 mg protein/ml, except for the case of ABT-737 and negative control enantiomer treatments, where 0.1 mg/ml was used. Release of cytochrome c was determined by a comparison of cytochrome c in the pellet and supernatant quantitated by ELISA (R&D systems).
CLL mitochondria were incubated with BH3 peptides as well as ABT-737 and negative control enantiomer (FIG. 14). […] This pattern is diagnostic of mitochondrial BCL-2 dependence. […] Since the BH3 peptides in the sensitizer panel lack the ability to directly activate BAX and BAK, these experiments also implicated the presence of an activator molecule constitutively sequestered by BCL-2 in CLL.

The next assay has as its system SU-DHL6. Kind of assay: BH3 profiling, cytochrome c release from lymphoma mitochondria. The assay is classed as biochemical. To be noted: SU-DHL 6.
Description: as §2
SU-DHL4 and SU-DHL6 a “primed” phenotype, based on the sensitivity to sensitizer BH3 peptides. […] SU-DHL-10 responded poorly to both sensitizer and activator peptides, indicating the loss of the effector arm.

The test system of another assay is CLL cells. Nature of the assay: Annexin-V death assay of freshly isolated primary CLL cells. The assay is classed as cell-based, human. The method, then: Cells were stained with fluorescent conjugates of Annexin-V (BioVision) and propidium iodide (PI) and analyzed on a FACSCalibur machine (Becton-Dickinson).
15 ml of blood in heparin treated tubes was obtained from each anonymous CLL patient and processed without freezing. Equal volume of media (RPMI medium, 10% […], supplemented with […] and 10 mg/ml transferrin) was mixed with each sample and CLL cells isolated by centrifugation through Ficoll-PAQUE Plus (Amersham). Cells were washed twice in media and cultured at a density of 2.0×10^6 cells/ml for up to 48 hours. Samples for FIG. 11A were obtained from 24 consecutive patients identified with WBC >50,000/μl. All guidelines and regulations were followed in accordance with IRB protocols #99-224 (Dana-Farber Cancer Institute). Normal PBMC's were obtained from tubing discarded following platelet donation by anonymous normal donors and processed as above, except cultured without insulin and transferrin.
Experimental replicates were performed using lysates or mitochondria from different CLL samples. In main body, where a P value is given, it was obtained by using a two-tailed Students t-test, and P<0.05 was considered statistically significant. GraphPad Prism software was used to determine EC50 values by non-linear dose-response curve fitting and to perform Mann-Whitney nonparametric testing in Table 5.
Freshly isolated primary CLL cells were incubated with ABT-737 or negative control enantiomer. After 48 hours, death was assessed using Annexin-V staining.

The mark [2] stands for this setting: FL5.12-BCL-2 cells deprived of IL-3 for 24 hours, peptides 10 μM.

With `CC[C@H](C)[C@H](NC(=O)[C@H](CC(N)=O)NC(=O)[C@H](CCCNC(=N)N)NC(=O)[C@@H](NC(=O)[C@@H](NC(=O)[C@H](CC(=O)O)NC(=O)[C@H](CCC(=O)O)NC(=O)CCCCCNC(=S)Nc1ccc2c(c1)C(=O)OC21c2ccc(O)cc2Oc2cc(O)ccc21)[C@@H](C)CC)[C@@H](C)CC)C(=O)N[C@@H](C)C(=O)N[C@@H](CCCNC(=N)N)C(=O)N[C@@H](Cc1c[nH]cn1)C(=O)N[C@@H](CC(C)C)C(=O)N[C@@H](C)C(=O)N[C@@H](CCC(N)=O)C(=O)N[C@H](C(=O)NCC(=O)N[C@@H](CC(=O)O)C(=O)N[C@@H](CO)C(=O)N[C@@H](CCSC)C(=O)N[C@@H](CC(=O)O)C(=O)N[C@@H](CCCNC(=N)N)C(=O)O)C(C)C` [BID], the cytochrome c release result in assay [1] (setting [2]) is reported as “sensitivity to 10 μM BID BH3 is restored”; in assay [1] (FL5.12-BCL-2 cells with IL-3, peptides 10 μM), “BCL-2 overexpression inhibits release”; in assay [1] (wt FL5.12 cells with IL-3, peptides 10 uM), “potently induce cytochrome c release”. The “mitochondrial sensitivity to BH3 peptide” value with SU-DHL8 is on record as “responding strongly”.
For `CC[C@H](C)[C@H](NC(=O)[C@H](CS)NC(=O)[C@H](C)NC(=O)[C@H](CC(C)C)NC(=O)[C@H](CCCNC(=N)N)NC(=O)[C@H](CC(C)C)NC(=O)[C@H](C)NC(=O)[C@H](CC(C)C)NC(=O)[C@H](C)NC(=O)[C@H](CC(=O)O)NC(=O)[C@H](CO)NC(=O)CNC(=O)[C@H](CCC(=O)O)NC(=O)[C@H](CCSC)NC(=O)CCCCCNC(=S)Nc1ccc2c(c1)C(=O)OC21c2ccc(O)cc2Oc2cc(O)ccc21)C(=O)NCC(=O)N[C@@H](CC(=O)O)C(=O)N[C@@H](CCC(=O)O)C(=O)N[C@@H](CCSC)C(=O)N[C@@H](CC(=O)O)C(=O)N[C@H](C(=O)O)C(C)C` [BIK], the “cytochrome c release by peptide alone” value in the assay on mouse liver mitochondria is given as “none of the sensitizer BH3 peptides by themselves can induce cytochrome c release significantly above background”. The cytochrome c release result in assay [1] (setting [2]) is on record as “does not induce cytochrome c release”; in the assay on leukemic mitochondria it was “capable of inducing near total cytochrome c release”.
As to `CC[C@H](C)[C@H](NC(=O)[C@H](CC(C)C)NC(=O)[C@H](CCC(N)=O)NC(=O)[C@H](CC(C)C)NC(=O)[C@H](CCCCN)NC(=O)[C@H](CCCNC(=N)N)NC(=O)[C@H](C)NC(=O)[C@@H](NC(=O)[C@H](CCC(N)=O)NC(=O)[C@@H](NC(=O)[C@H](CCC(=O)O)NC(=O)[C@H](C)NC(=O)[C@H](CCC(N)=O)NC(=O)[C@H](Cc1c[nH]cn1)NC(=O)CCCCCNC(=S)Nc1ccc2c(c1)C(=O)OC21c2ccc(O)cc2Oc2cc(O)ccc21)C(C)C)[C@@H](C)CC)C(=O)N[C@@H](C)C(=O)N[C@@H](CC(=O)O)C(=O)N[C@@H](CCC(N)=O)C(=O)N[C@@H](Cc1ccccc1)C(=O)N[C@@H](Cc1c[nH]cn1)C(=O)N[C@@H](CCCNC(=N)N)C(=O)O` [BMF], the figures for the cytochrome c release entry in the assay on CLL mitochondria and in the assay with leukemic mitochondria were “induce cytochrome c release” and “capable of inducing near total cytochrome c release”, respectively. The “cytochrome c release by peptide alone” value in the assay with mouse liver mitochondria is reported as “none of the sensitizer BH3 peptides by themselves can induce cytochrome c release significantly above background”. In the assay on SU-DHL6, the “mitochondrial sensitivity to BH3 peptide” value is “strong”.
Consider `CC(C)C[C@H](NC(=O)[C@H](C)NC(=O)[C@H](CCCCN)NC(=O)[C@H](CC(C)C)NC(=O)[C@H](CCCNC(=N)N)NC(=O)[C@H](C)NC(=O)[C@H](C)NC(=O)[C@@H](NC(=O)[C@H](CC(C)C)NC(=O)[C@H](CCC(N)=O)NC(=O)[C@H](C)NC(=O)[C@H](C)NC(=O)[C@H](CO)NC(=O)[C@H](CO)NC(=O)CCCCCNC(=S)Nc1ccc2c(c1)C(=O)OC21c2ccc(O)cc2Oc2cc(O)ccc21)[C@@H](C)O)C(=O)NCC(=O)N[C@@H](CC(=O)O)C(=O)N[C@@H](CCC(=O)O)C(=O)N[C@@H](CC(C)C)C(=O)N[C@@H](Cc1c[nH]cn1)C(=O)N[C@@H](CCC(N)=O)C(=O)O` [HRK], for which, in the assay on CLL mitochondria, the cytochrome c release result was “do not”. The “cytochrome c release by peptide alone” value in the assay on mouse liver mitochondria is listed as “none of the sensitizer BH3 peptides by themselves can induce cytochrome c release significantly above background”.
Regarding `CN(C)CC[C@@H](CSc1ccccc1)Nc1ccc(S(=O)(=O)NC(=O)c2ccc(N3CCN(Cc4ccccc4-c4ccc(Cl)cc4)CC3)cc2)cc1[N+](=O)[O-]` [NCE], the EC50 in the assay on CLL cells (twenty-four CLL samples, 48 hours, read-out: mean EC50, apoptosis of CLL cells) was 574 nM.
`COC(=O)C[C@H](NC(=O)[C@H](C)NC(=O)[C@@H](NC(=O)OCc1ccccc1)C(C)C)C(=O)CF` [ZVAD-fmk] (Cbz-Val-Ala-Asp(OMe)-CH2F): the “protection against ABT-737-induced death” value with CLL cells (co-treatment, 200 μM) is “protects against ABT-737-induced death”.
As to “BADmut: point mutant (L→A) of BAD BH3, LWAAQRYGREARRMSDEFEGSFKGL (SEQ ID NO: 13), negative control (Chemically synthesized primer)”, in the assay on CLL mitochondria, the cytochrome c release result was “do not”.
As to “BH3 domain peptide of BNIP3-a, VVEGEKEVEALKKSADWVSD (SEQ ID NO: 9) (not fully specified (N-terminus))”, in the assay with CLL mitochondria, the cytochrome c release result is “do not”. Moreover, the “cytochrome c release by peptide alone” value with mouse liver mitochondria is listed as “none of the sensitizer BH3 peptides by themselves can induce cytochrome c release significantly above background”.
As for “second BH3 domain peptide of murine NOXA, PADLKDECAQLRRIGDKVNL (SEQ ID NO: 7) (not fully specified (N-terminus)) [NOXA B]”, the “cytochrome c release by peptide alone” value with mouse liver mitochondria is recorded as “none of the sensitizer BH3 peptides by themselves can induce cytochrome c release significantly above background”.

As usually defined, the EC50 is the concentration that produces a half-maximal response.

Source of the values: US11215608B2, “Methods of determining cellular chemosensitivity” (Dana-Farber Cancer Institute, Inc., priority 2006, dated 2022).
